Laboratory results as given in US20180147161A1, “MULTIDRUG BRITTLE MATRIX COMPOSITIONS” (BOARD OF REGENTS, THE UNIVERSITY OF TEXAS SYSTEM, priority 2015, published 2018).
Where two headings read alike, the source gives them in different places. Values belong to the compound of their own block, whether it stands above or below them.

Assays:
[1] = Particle size distribution by laser diffraction; format: physicochemical; settings: for Particle size D10 / Particle size D50 / Particle size D90: laser diffraction
Method: Measurement of particle size distributions of budesonide, tiotropium bromide and formoterol fumarate before and after jet milling were measured by laser diffraction (HELOS, Sympatec GmbH, Clausthal-Zellerfelg, Germany). A small amount of formoterol fumarate and Tiotropium bromide were separately dispersed in 10 mL 0.01% tween 80 mineral oil and a small amount of budesonide was dispersed in 10 mL 0.01% tween 80 in deionized water. The samples were sonicated for 5 minutes and diluted with enough solvent to produce light obscuration in the range of 15-20%. The sizes reported are average values of at least 3 measurements. The results are presented as D(x) and span, where X is the cumulative percentile of particles under the referred size (e.g. D(50) corresponds to the median diameter of the particles). Span is a measurement of particle size distribution calculated as [(D(90)−D(10)]/D(50).

[2] = BET specific surface area of triple therapy materials; format: physicochemical; settings: for SSA: after jet milling
Method: Powder porosity was determined through the measurement of the specific surface area (SSA) using a Monosorb MS-22 rapid surface area analyzer (Quantachrome Instruments, Boynton Beach, Fla.). The instrument uses a modified BET equation for SSA determination. Samples were degassed in a Thermoflow™ Degasser for at least 2 hours at 25° C. using 30% nitrogen in helium as the […].

[3] = Particle size distribution by laser diffraction; format: physicochemical; settings: [(D(90)−D(10)]/D(50))
[4] = cited from earlier work

Structure (SMILES): COc1ccc(C[C@@H](C)NC[C@H](O)c2ccc(O)c(NC=O)c2)cc1.COc1ccc(C[C@@H](C)NC[C@H](O)c2ccc(O)c(NC=O)c2)cc1.O=C(O)/C=C/C(=O)O [Formoterol furmarate, formoterol fumarate]
Span ([1]; [(D(90)−D(10)]/D(50))): 7.75
D50 ([1]; after jet milling): 4.51±0.02 μm
Span ([1]; after jet milling): 1.96
Particle size D10 [1]: 1.16 ± 0.05 μm
Particle size D50 [1]: 6.27 ± 0.97 μm
Particle size D90 [1]: 49.78 ± 7.84 μm
Particle size D50 ([1]; listed as Formoterol): 6.27±0.97 μm
SSA ± SD [2]: 2.97 ± 0.05 m^2/g
SSA [2]: 5.08±0.26 m^2/g
SSA ± SD ([2]; listed as formoterol): 2.97±0.05 m^2/g
Span [3]: 7.75

Structure (SMILES): C[N+]1(C)[C@@H]2C[C@@H](OC(=O)C(O)(c3cccs3)c3cccs3)C[C@H]1[C@@H]1O[C@@H]12 [Jet milled tiotropium bromide, tiotropium bromide]
Span ([1]; [(D(90)−D(10)]/D(50))): 2.0
Particle size D10 [1]: 1.09 ± 0.79 μm
Particle size D50 [1]: 4.65 ± 0.04 μm
Particle size D90 [1]: 10.39 ± 0.04 μm
SSA ± SD [2]: 2.86 ± 0.11 m^2/g

Structure (SMILES): O.OC[C@H]1O[C@@H](O[C@H]2[C@H](O)[C@@H](O)C(O)O[C@@H]2CO)[C@H](O)[C@@H](O)[C@H]1O (some centres unmarked) [Lactose monohydrate, lactose monohydrate]
Span ([1]; [(D(90)−D(10)]/D(50))): 2.43
Particle size D10 [1]: 4.13 ± 0.11 μm
Particle size D90 [1]: 100.9 ± 0.27 μm
Particle size D50 ([1]; listed as lactose, monohydrate): 39.78±1.32 μm
Particle size D50 ([1]; monohydrate): 39.78 ± 1.32 μm
SSA ± SD [2]: 0.34 ± 0.03 m^2/g

Span ([1]; [(D(90)−D(10)]/D(50))): 1.8
Particle size D10 [1]: 6.88 ± 0.07 μm
Particle size D50 [1]: 52.70 ± 0.59 μm
Particle size D90 [1]: 101.91 ± 0.41 μm
Particle size D50 ([1]; listed as mannitol): 52.70±0.59 μm
SSA ± SD [2]: 0.22 ± 0.001 m^2/g
Span [3]: 1.80
Structure (SMILES): OC[C@@H](O)[C@@H](O)[C@H](O)[C@H](O)CO [Mannitol, D-(+)-Mannitol]

Structure (SMILES): C[N+]1(C)[C@@H]2C[C@@H](OC(=O)C(O)(c3cccs3)c3cccs3)C[C@H]1[C@@H]1O[C@@H]12 [Tiotropium bromide, tiotropium bromide]
Span ([1]; [(D(90)−D(10)]/D(50))): 2.14
D50 ([1]; after jet milling): 4.65±0.04 μm
Span ([1]; after jet milling): 2.0
Particle size D10 [1]: 1.10 ± 0.01 μm
Particle size D50 [1]: 5.14 ± 0.03 μm
Particle size D90 [1]: 12.11 ± 0.07 μm
Particle size D50 ([1]; listed as tiotropium): 5.14±0.03 μm
SSA ± SD [2]: 2.08 ± 0.13 m^2/g
SSA [2]: 2.86±0.11 m^2/g
SSA ± SD ([2]; listed as tiotropium): 2.08±0.13 m^2/g
Span [3]: 2.14

Structure (SMILES): COc1ccc(C[C@@H](C)NC[C@H](O)c2ccc(O)c(NC=O)c2)cc1.COc1ccc(C[C@@H](C)NC[C@H](O)c2ccc(O)c(NC=O)c2)cc1.O=C(O)/C=C/C(=O)O [jet milled formoterol fumarate, formoterol fumarate]
Span ([1]; [(D(90)−D(10)]/D(50))): 1.96
Particle size D10 [1]: 1.45 ± 1.01 μm
Particle size D50 [1]: 4.51 ± 0.02 μm
Particle size D90 [1]: 10.29 ± 0.07 μm
SSA ± SD [2]: 5.08 ± 0.26 m^2/g

Structure (SMILES): C[C@@H]1C[C@H]2[C@@H]3CCC4=CC(=O)C=C[C@]4(C)[C@@]3(Cl)[C@@H](O)C[C@]2(C)[C@@]1(OC(=O)c1ccco1)C(=O)CCl [mometasone furoate]
Solubility in water [4]: practically insoluble

Structure (SMILES): OCc1cc(C(O)CNCCCCCCOCCCCc2ccccc2)ccc1O (centres unmarked) [salmeterol xinafoate]
Solubility in water [4]: sparingly soluble
